Results: publication PMC12063173, “Metabolic Profiling of a Mediterranean-Inspired (Poly)phenol-Rich Mixture in the Brain: Perfusion Effect and In Vitro Blood–Brain Barrier Transport Validation” (Journal of Agricultural and Food Chemistry, 2025)
Entries after “also recorded” stand apart in the source; their conditions may differ.

Tests used:
[1] = Perfused brain (PB) kinetics of phenolic metabolites after oral capsule; type: in vivo, Sprague–Dawley rats; parameters: AUC0-t PB: concentration or dose not given beside the values; details: perfused brain, oral capsule, 0-24 h, n = 3 per time point; for Tmax: male, Sprague-Dawley, rat, 22 mg extract blend per capsule, one capsule per animal
From the text: (§1) Statistical analyses were applied depending on the experimental context.

[2] = Nonperfused brain (NPB) kinetics of phenolic metabolites after oral capsule; type: in vivo, Sprague–Dawley rats; parameters: AUC0-t NPB: concentration or dose not given beside the values
From the text: as §1

[3] = tested on: human brain microvascular endothelial cells (HBMECs); experiment: In vitro blood–brain barrier transport (Transwell); type: in vitro ADME; details: 2 h; for transport efficiency in MIXperc compared with MIXeq: HBMEC, mixtures at 2.5 μM final
Protocol: The BBB transport model was established using human brain microvascular endothelial cells (HBMECs), following a methodology previously described.[49] Cells were maintained at 37 °C in a humidified environment with 5% CO2. HBMECs were seeded on 12-well Transwell inserts (12 mm, 0.4 μm pore polyester membrane; Corning, Madrid, Spain) and cultured for 6 days to form confluent monolayers suitable for transport studies. Transport assays were carried out in Hanks’ Balanced Salt Solution (HBSS) supplemented with 0.1% fetal bovine serum (FBS, v/v). The cells were exposed on the apical side to individual phenolic metabolites detected in the brain from the animal study, a representative mixture containing equal concentrations of these metabolites, or a physiological mixture reproducing their relative percentages as observed in the brain. All treatments were applied at a final concentration of 2.5 μM for 2 h (Supporting Information, Table S3). The integrity of the cell monolayers was confirmed by measuring transendothelial electrical resistance (TEER) at the start of the experiment (0 h) and after the last time point (2 h) using an EVOM2 Epithelial Volt Ohm Meter (World Precision Instruments, Inc., USA).
Samples from the apical and basolateral compartments were stored at −80 °C for further analysis. Transport of the compounds was evaluated using UPLC-qTOF as described elsewhere,[38] and transendothelial permeability expressed as a percentage of the ratio between the concentration in the basolateral compartment relative to the total concentration in both compartments.
Finally, one-way ANOVA with Tukey’s multiple comparisons test was exclusively applied to in vitro BBB transport experiments. The three tested conditions for each compound (individual compound, a mixture containing equal concentrations of these compounds, or a physiological mixture reproducing their relative percentages as observed in the brain were evaluated. Plots were performed using GraphPad 9.0 (GraphPad Software, Boston, Massachusetts, USA). Statistical significance was set at P < 0.05.
Figure 3 Transport efficiency of phenolic metabolites across the BBB. Human brain microvascular endothelial cells (HBMEC) were seeded onto semipermeable membranes. […] Detailed composition of both mixtures is given in the Supporting Information, Table S3. Media from the upper and lower compartments were collected, and endothelial transport was evaluated by UPLC-qTOF-MS. The transport percentage (%) was determined by the concentration ratio in the lower compartment to the total concentration (upper and lower compartments). All values are presented as mean ± SD from three independent experiments.

[4] = parameters: method as in doi:10.1016/j.jff.2015.09.019; details: human, even upon high free ellagic acid intake; cited from earlier work
[5] = Targeted metabolomics (UPLC-ESI-QTOF) identification of metabolites in plasma, PB and NPB; details: P plasma, PB perfused brain, NPB nonperfused brain; 1-24 h after oral capsule
Protocol: (§2) Adult male Sprague–Dawley rats weighing 250–300 g were purchased from the Animal Experimentation Service of the University of Murcia (Murcia, Spain). […] Based on the experimental design shown in Figure 1, one capsule was administered by gavage to each fasting animal. A total of 40 animals were used in the study. Thirty animals received a capsule containing a mixture of different Mediterranean food extracts, while ten animals received a capsule with microcrystalline cellulose and served as the control group. […] To minimize animal use in accordance with the 3Rs principle, two control animals were sacrificed at each time point (one PB and one NPB). These controls served to identify potential endogenous compounds or background signals not related to the extract administration. All animals were fasted overnight prior to gavage and euthanized with carbon dioxide.
(§3) Plasma samples were extracted with ACN:formic acid (98:2, v/v), centrifuged and evaporated in a speed vacuum concentrator (Savant SPD14 0DDA). The evaporated samples were resuspended in 100 μL MeOH and filtered through 0.22 μm regenerated cellulose filters (Minisart Sartorius, Madrid, Spain). Next, half of the animals at each time point were perfused with ice-cold phosphate-buffered saline, and the blood-free brain was dissected out immediately and stored at – 80 °C until analysis, as previously reported.[37],[48]
(§4) Approximately 400 mg of brain tissue (perfused or nonperfused) was weighed and extensively washed with cold PBS to avoid external blood contamination. After weighting, the samples were placed in 2 mL screw cap tubes. […] The evaporated samples were resuspended in 100 μL MeOH and filtered through 0.22 μm regenerated cellulose filters.
(§5) We performed a targeted metabolomic analysis using an ultrahigh-performance liquid chromatographic system (UPLC) coupled to a quadrupole-time-of-flight (QTOF) mass spectrometer. The phenolic compounds were separated using an Agilent Poroshell 120 column (100 mm × 3 mm, 2.7 μm) and a 5 μL injection volume. […] The flow rate was set constant at 0.4 mL/min. The spectra were acquired in the m/z range from 100 to 1100, in negative polarity mode and an acquisition rate of 1.5 spectra per second. Quantitative data were processed using the Mass HunterQualitative Analysis software (version B.08.00, Agilent). A target screening strategy was applied for the qualitative analysis of possible metabolites derived from the consumption of the Mediterranean blend. […] These compounds encompass derived metabolites conjugated (glucuronides, sulfates, and sulfoglucuronides, among others). The exact mass of the proposed compound was extracted using an extraction window of 0.01 m/z. Metabolite quantification was performed by integrating the peak areas of their extracted ion chromatograms (EICs). Compounds with available standards were quantified using calibration curves derived from the respective standards, while other metabolites were semiquantified based on their peak area values.

[6] = Plasma pharmacokinetics of phenolic metabolites after oral capsule of (poly)phenol-rich Mediterranean extract mixture; details: male, Sprague-Dawley, rat, po, 22 mg extract blend per capsule, one capsule per animal
Protocol: (§6) Adult male Sprague–Dawley rats weighing 250–300 g were purchased from the Animal Experimentation Service of the University of Murcia (Murcia, Spain). […] Animals were maintained in a temperature-controlled environment with a 12 h light-dark cycle. […] Based on the experimental design shown in Figure 1, one capsule was administered by gavage to each fasting animal. A total of 40 animals were used in the study. Thirty animals received a capsule containing a mixture of different Mediterranean food extracts, while ten animals received a capsule with microcrystalline cellulose and served as the control group. At each time point (1, 3, 6, 8, and 24 h postadministration), six animals from the extract group were sacrificed, three with transcardial perfusion using saline (PB) and three without perfusion (NPB), to assess the distribution of extract-derived metabolites in plasma and brain. To minimize animal use in accordance with the 3Rs principle, two control animals were sacrificed at each time point (one PB and one NPB). […] All animals were fasted overnight prior to gavage and euthanized with carbon dioxide.
(§7) Blood samples collected by cardiac puncture in sodium heparin tubes at each time point after sacrifice were immediately centrifuged at 14,000 × g for 15 min at 4 °C, and the plasma was stored at −80 °C until their analysis. Plasma samples were extracted with ACN:formic acid (98:2, v/v), centrifuged and evaporated in a speed vacuum concentrator (Savant SPD14 0DDA). The evaporated samples were resuspended in 100 μL MeOH and filtered through 0.22 μm regenerated cellulose filters (Minisart Sartorius, Madrid, Spain).
(§8) We performed a targeted metabolomic analysis using an ultrahigh-performance liquid chromatographic system (UPLC) coupled to a quadrupole-time-of-flight (QTOF) mass spectrometer. The phenolic compounds were separated using an Agilent Poroshell 120 column (100 mm × 3 mm, 2.7 μm) and a 5 μL injection volume. The mobile phases used were 0.1% formic acid in water (A) and 0.1% formic acid in ACN (B), and the gradient was: 0–3 min, 5–15% B; 3–11 min, 15–30% B; 11–14 min, 30–50% B, 14–16 min, 50–90% B. Finally, the B content was decreased to the initial conditions (5%) in 1 min, and the column re-equilibrated for 4 min. The flow rate was set constant at 0.4 mL/min. The spectra were acquired in the m/z range from 100 to 1100, in negative polarity mode and an acquisition rate of 1.5 spectra per second.

[7] = rat, in vivo
Protocol: as §2, §3, §4, §5

in vivo = details: male, Sprague-Dawley, rat, po
Protocol: as §6, §7, §8

[8] = male, Sprague-Dawley, rat, 22 mg extract blend per capsule, one capsule per animal, nonperfused brain, oral capsule, 0-24 h, n = 3 per time point
[9] = nonperfused brain, oral capsule, 0-24 h, n = 3 per time point

Row | SMILES | Tmax [1] [h] | AUC0-t PB [1] [pmol·h/g] | Cmax PB [1] [pmol/g tissue] | Tmax [2, 8] [h] | AUC0-t NPB [2, 9] [pmol·h/g] | Cmax NPB [2, 9] [pmol/g tissue] | transport efficiency in MIXperc compared with MIXeq [3] | occurrence [5] | AUC(0-t) [6] [µM·h] | Cmax [6] [nM] | MRT last [6] [h] | Tmax [6] [h] | also measured
1 | O=c1oc2c(O)c(O)cc3c(=O)oc4c(O)c(O)cc1c4c23 [ellagic acid] | 16 ± 11 | 1.5 ± 1.1 | 0.1 ± 0.08 | 15 ± 13 | 7.1 ± 7.5 | 0.9 ± 0.9 | significantly higher transport efficiencies | PB, NPB, P | 0.0141 ± 0.0074 | 1.1 ± 0.8 | 103 | 10 ± 12 | concentration in NPB relative to PB ([2]; NPB versus PB): 9 fold; MRT last ([2]; male, Sprague-Dawley, rat, 22 mg extract blend per capsule, one capsule per animal, nonperfused brain, oral capsule, 0-24 h, n = 3 per time point, read-out: MRT0-t NPB): 56.9 h; half-life ([2]; male, Sprague-Dawley, rat, 22 mg extract blend per capsule, one capsule per animal, nonperfused brain, oral capsule, 0-24 h, n = 3 per time point, read-out: T1/2 NPB (converted)): 36.3 h; free ellagic acid concentration in plasma [4]: ≤ 100 nM
2 | O=S(=O)(O)Oc1cc(O)cc(C=Cc2ccc(O)cc2)c1 [resveratrol 3-O-sulfate] | 5 ± 1.7 | 0.1 ± 0.1 | 0.1 ± 0.01 | 15 ± 13 | 2.2 ± 0.1 | 0.2 ± 0.04 | lower transport percentages | detected in plasma, PB, and NPB; also recorded: PB, NPB, P | 0.0084 ± 0.01 | 2.2 ± 2.6 | 8.5 ± 5.5 | 5.2 ± 2.2 | transport percentage, individual compounds ([3]; HBMEC monolayer, 2.5 μM, lower compartment / total concentration): < 5%; half-life [6]: 3.9 ± 4.3 h
3 | O=S(=O)(O)Oc1ccc(C=Cc2cc(O)cc(O)c2)cc1 [resveratrol 4’-O-sulfate] | – | – | – | – | – | – | – | restricted to plasma | – | – | – | – | concentration–time profile in brain (Figure 2) [7]: Not detected; AUC(0-t) (in vivo): 0.026 ± 0.027 µM·h; Cmax (in vivo): 2.9 ± 2.8 nM; MRT last (in vivo): 10.7 h; Tmax (in vivo): 7.3 ± 1.2 h; half-life (in vivo): 5.6 h
